Source: patent publication US11707440B2 (priority 2017, dated 2023)

Test system: patients with treatment-resistant depression (TRD)
Test: Adverse events, Example 7
Assay type: in vivo, human
Conditions: for Dissociation, number of participants / Dissociative disorder, % of participants / Dissociative disorder, number of participants / Dizziness, % of participants / Dizziness, number of participants / Dysgeusia, % of participants / Dysgeusia, number of participants / Feeling abnormal, % of participants / Feeling abnormal, number of participants / Headache, % of participants / Headache, number of participants / Hypersomnia, % of participants / Hypersomnia, number of participants / Hypertension, number of participants / Hypoesthesia oral, % of participants / Hypoesthesia oral, number of participants / Insomnia, number of participants / Nasal discomfort, number of participants / Nausea, % of participants / Nausea, number of participants / Oropharyngeal pain, number of participants / Polyuria, number of participants / Sedation, % of participants / Sedation, number of participants / Throat irritation, % of participants / Throat irritation, number of participants / Total with events, % of participants / Total with events, number of participants / Tunnel vision, number of participants / Vertigo, % of participants / Vertigo, number of participants / Vision blurred, number of participants / Dissociation, % of participants / Hypertension, % of participants / Insomnia, % of participants / Nasal discomfort, % of participants / Oropharyngeal pain, % of participants / Polyuria, % of participants / Tunnel vision, % of participants / Vision blurred, % of participants: double-blind
Procedure: Adverse events were monitored throughout the study. Other safety assessments (i.e., laboratory tests, vital signs, physical examination) were performed at pre-specified time points. Vital signs, the Clinician Administered Dissociative States Scale (CADSS; Bremner, “Measurement of dissociative states with the clinician-administered dissociative states scale (CADSS)”, J. Traumatic Stress, 1998, 11(1):125-136), and the 4-item positive symptom subscale from the Brief Psychiatric Rating Scale (BPRS; Overall, “The Brief Psychiatric Rating Scale. Psychological Reports”, 1962, 10:799-812) were assessed pre-dose, at 40 minutes, and 2 hours post-dose.
Safety data were analyzed in Period 1, Period 2, double-blind, and open-label data sets, for all subjects receiving at least 1 dose of study medication.

CN[C@]1(c2ccccc2Cl)CCCCC1=O [esketamine, (S)-2-(2-chlorophenyl)-2-(methylamino)cyclohexanone]
11%: Dissociative disorder, % of participants (28 mg) | Dysgeusia, % of participants (28 mg) | Feeling abnormal, % of participants (28 mg) | Hypersomnia, % of participants (28 mg) | Nausea, % of participants (28 mg) | Vertigo, % of participants (28 mg)
20%: Hypoesthesia oral, % of participants (56 mg) | Nausea, % of participants (56 mg) | Dissociation, % of participants (Total esketamine)
7: Dissociation, number of participants (56 mg) | Dissociative disorder, number of participants (Total esketamine) | Hypoesthesia oral, number of participants (Total esketamine)
3: Dysgeusia, number of participants (56 mg) | Headache, number of participants (56 mg) | Headache, number of participants (84 mg) | Hypertension, number of participants (Total esketamine) | Nasal discomfort, number of participants (Total esketamine) | Oropharyngeal pain, number of participants (Total esketamine) | Throat irritation, number of participants (Total esketamine)
4%: Hypersomnia, % of participants (Total esketamine) | Insomnia, % of participants (Total esketamine) | Polyuria, % of participants (Total esketamine) | Tunnel vision, % of participants (Total esketamine) | Vision blurred, % of participants (Total esketamine)
5: Dysgeusia, number of participants (84 mg)
7%: Feeling abnormal, % of participants (Total esketamine) | Sedation, % of participants (Total esketamine) | Vertigo, % of participants (Total esketamine)
36%: Dizziness, % of participants (Total esketamine)
21%: Dizziness, % of participants (28 mg) | Headache, % of participants (Total esketamine)
15.8%: Adverse event nausea (open-label phase)
8: Dizziness, number of participants (56 mg) | Dizziness, number of participants (84 mg)
1: Hypoesthesia oral, number of participants (28 mg) | Sedation, number of participants (28 mg) | Throat irritation, number of participants (28 mg) | Dissociative disorder, number of participants (56 mg) | Feeling abnormal, number of participants (56 mg) | Oropharyngeal pain, number of participants (56 mg) | Vertigo, number of participants (56 mg) | Feeling abnormal, number of participants (84 mg) | Hypertension, number of participants (84 mg) | Nasal discomfort, number of participants (84 mg) | Sedation, number of participants (84 mg) | Vertigo, number of participants (84 mg)
40%: Dizziness, % of participants (56 mg)
6%: Feeling abnormal, % of participants (84 mg) | Hypertension, % of participants (84 mg) | Nasal discomfort, % of participants (84 mg) | Sedation, % of participants (84 mg) | Vertigo, % of participants (84 mg)
29%: Dysgeusia, % of participants (84 mg)
15: Total with events, number of participants (84 mg)
24.6%: Participants reporting transient dissociative symptoms (open-label phase)
2: Dissociative disorder, number of participants (28 mg) | Dysgeusia, number of participants (28 mg) | Feeling abnormal, number of participants (28 mg) | Hypersomnia, number of participants (28 mg) | Nausea, number of participants (28 mg) | Vertigo, number of participants (28 mg) | Hypertension, number of participants (56 mg) | Insomnia, number of participants (56 mg) | Nasal discomfort, number of participants (56 mg) | Polyuria, number of participants (56 mg) | Sedation, number of participants (56 mg) | Hypoesthesia oral, number of participants (84 mg) | Oropharyngeal pain, number of participants (84 mg) | Throat irritation, number of participants (84 mg) | Tunnel vision, number of participants (84 mg) | Vision blurred, number of participants (84 mg) | Hypersomnia, number of participants (Total esketamine) | Insomnia, number of participants (Total esketamine) | Polyuria, number of participants (Total esketamine) | Tunnel vision, number of participants (Total esketamine) | Vision blurred, number of participants (Total esketamine)
47%: Dizziness, % of participants (84 mg)
13%: Dissociative disorder, % of participants (Total esketamine) | Hypoesthesia oral, % of participants (Total esketamine)
38.6%: Adverse event dizziness (open-label phase)
75%: Total with events, % of participants (Total esketamine)
35%: Dissociation, % of participants (56 mg)
0: Dissociation, number of participants (28 mg) | Hypertension, number of participants (28 mg) | Insomnia, number of participants (28 mg) | Nasal discomfort, number of participants (28 mg) | Oropharyngeal pain, number of participants (28 mg) | Polyuria, number of participants (28 mg) | Tunnel vision, number of participants (28 mg) | Vision blurred, number of participants (28 mg) | Hypersomnia, number of participants (56 mg) | Throat irritation, number of participants (56 mg) | Tunnel vision, number of participants (56 mg) | Vision blurred, number of participants (56 mg) | Hypersomnia, number of participants (84 mg) | Insomnia, number of participants (84 mg) | Polyuria, number of participants (84 mg)
42: Total with events, number of participants (Total esketamine)
5%: Hypoesthesia oral, % of participants (28 mg) | Sedation, % of participants (28 mg) | Throat irritation, % of participants (28 mg) | Dissociative disorder, % of participants (56 mg) | Feeling abnormal, % of participants (56 mg) | Oropharyngeal pain, % of participants (56 mg) | Vertigo, % of participants (56 mg) | Hypertension, % of participants (Total esketamine) | Nasal discomfort, % of participants (Total esketamine) | Oropharyngeal pain, % of participants (Total esketamine) | Throat irritation, % of participants (Total esketamine) | Participants with adverse events leading to discontinuation of study drug (double-blind phase)
10: Dysgeusia, number of participants (Total esketamine) | Nausea, number of participants (Total esketamine)
14.0%: Adverse event headache (open-label phase)
88%: Total with events, % of participants (84 mg)
11: Total with events, number of participants (28 mg) | Dissociation, number of participants (Total esketamine)
4: Dizziness, number of participants (28 mg) | Hypoesthesia oral, number of participants (56 mg) | Nausea, number of participants (56 mg) | Dissociation, number of participants (84 mg) | Dissociative disorder, number of participants (84 mg) | Nausea, number of participants (84 mg) | Feeling abnormal, number of participants (Total esketamine) | Sedation, number of participants (Total esketamine) | Vertigo, number of participants (Total esketamine)
10%: Hypertension, % of participants (56 mg) | Insomnia, % of participants (56 mg) | Nasal discomfort, % of participants (56 mg) | Polyuria, % of participants (56 mg) | Sedation, % of participants (56 mg)
80%: Total with events, % of participants (56 mg)
12: Headache, number of participants (Total esketamine)
16: Total with events, number of participants (56 mg)
22.8%: Adverse event dysgeusia (open-label phase)
20: Dizziness, number of participants (Total esketamine)
12%: Hypoesthesia oral, % of participants (84 mg) | Oropharyngeal pain, % of participants (84 mg) | Throat irritation, % of participants (84 mg) | Tunnel vision, % of participants (84 mg) | Vision blurred, % of participants (84 mg)
58%: Total with events, % of participants (28 mg)
2%: Participants with adverse events leading to discontinuation of study drug (open-label phase)
10.5%: Adverse event sedation (open-label phase)
24%: Dissociation, % of participants (84 mg) | Dissociative disorder, % of participants (84 mg) | Nausea, % of participants (84 mg)
15%: Dysgeusia, % of participants (56 mg) | Headache, % of participants (56 mg)
18%: Headache, % of participants (84 mg) | Dysgeusia, % of participants (Total esketamine) | Nausea, % of participants (Total esketamine)
32%: Headache, % of participants (28 mg)
6: Headache, number of participants (28 mg)
